Experimental data: patent US10058516B2, “Design, synthesis and methods of use of acyclic fleximer nucleoside analogues having anti-coronavirus activity” (priority 2015, dated 2018)
Where two headings read alike, the source gives them in different places.

Assays:
[1] = system: MERS-CoV (strain EMC/2012); assay: microbe, parasite or virus in culture; type: cell-based; conditions: for EC50: Middle East respiratory syndrome-related coronavirus, Huh-7, read-out: EC50: Effective concentration showing 50% inhibition of virus-induced CPE
[2] = system: MERS-CoV (strain EMC/2012); assay: microbe, parasite or virus in culture; type: cell-based; conditions: Middle East respiratory syndrome-related coronavirus, Vero, read-out: EC50: Effective concentration showing 50% inhibition of virus-induced CPE
Huh7 cells = conditions: human
Vero cells = conditions: African green monkey
[3] = system: SARS-CoV (strain Frankfurt-1)
VeroE6 cells = conditions: African green monkey
SARS-CoV or MERS-CoV = conditions: cited from earlier work
HIV-1 and HSV-2 = conditions: when McGuigan's ProTide technology was employed, cited from earlier work
[4] = system: SARS-CoV (strain Frankfurt-1); assay: microbe, parasite or virus in culture; conditions: Severe acute respiratory syndrome coronavirus
HCoV-NL63 = assay: NL63-CoV antiviral assay (CPE scored microscopically)
[5] = Cytotoxicity in Vero118 cells (NL63 assay, cell viability scored microscopically); conditions: African green monkey, Vero118 cells, CC50: Cytotoxic concentration showing 50% inhibition of cell survival, Vero118 (HCoV-NL63 assay)
in vitro = conditions: human
Vero118 cells = assay: Cytotoxicity in Vero118 cells (NL63 assay, cell viability scored microscopically); conditions: read-out: CC50: Cytotoxic concentration showing 50% inhibition of cell survival; Vero118 (HCoV-NL63 assay)
coronavirus = coronavirus replication in vitro; cited from earlier work
other viruses = conditions: cited from earlier work
[6] = Vero C1008, read-out: EC50: Effective concentration showing 50% inhibition of virus-induced CPE
[7] = Human coronavirus NL63, read-out: EC50: Effective concentration showing 50% inhibition of virus-induced CPE, HCoV-NL63 in Vero118

Nc1nc2c(ncn2COCCO)c(=O)[nH]1 [Acyclovir, acyclovir, reference compound]
block the replication of MERS-CoV [1]: had no effect
EC50 [1]: > 1000 µM
EC50 [2]: > 1000 µM
CC50 (Huh7 cells): > 1000 µM
CC50 (Vero cells): > 1000 µM
block the replication of SARS-CoV [3]: had no effect
CC50 (VeroE6 cells): > 1000 µM
activity against SARS-CoV or MERS-CoV in vitro (SARS-CoV or MERS-CoV): none of these well-known antiviral drugs exhibited any activity
suppression of replication of both HIV-1 and HSV-2 (HIV-1 and HSV-2; CD4+ T cells): 3 to 12 µmol/L
suppression of replication of both HIV-1 and HSV-2 (HIV-1 and HSV-2; lymphoid and cervicovaginal human tissues): submicromolar range
EC50 [4, 6]: > 1000 µM
EC50 (HCoV-NL63; [7]): > 100 µM
CC50 at 5 days [5]: > 100 µM

OCCOCn1cnc(-c2cnc(O)nc2O)c1 [Compound 1, 5-(1-((2-hydroxyethoxy)methyl)-1H-imidazol-4-yl)pyrimidine-2,4-diol]
EC50 (HCoV-NL63; [7]): 92 ± 68 µM
CC50 at 5 days [5]: > 200 µM

COc1nc(N)ncc1-c1cn(COCCO)cn1 [Compound 2, 2-((4-(2-amino-4-methoxypyrimidin-5-yl)-1H-imidazol-1-yl)methoxy)ethan-1-ol]
block the replication of MERS-CoV [1]: can block the replication of MERS-CoV
EC50 [1]: 13.5 µM
EC50 [2]: 10.1 ± 1.2 µM
CC50 (in vitro): 54 ± 1.7 µM
EC50 [4, 6]: 28.1 ± 0.2 µM
selective antiviral activity (CC50>10×) (HCoV-NL63; HCoV-NL63 in Vero118, CC50 relative to EC50): > 10 ×
EC50 (HCoV-NL63; [7]): < 10 µM
EC50 (HCoV-NL63; read-out: EC50: Effective concentration showing 50% inhibition of virus-induced CPE, HCoV-NL63 in Vero118): 8.8 ± 1.5 µM
CC50 at 5 days [5]: > 100 µM
CC50 (Vero118 cells): 120 ± 37 µM

Nc1ncc(-c2cn(COCCO)cn2)c(O)n1 [Compound 3, 2-amino-5-(1-((2-hydroxyethoxy)methyl)-1H-imidazol-4-yl)pyrimidin-4(3H)-one]
EC50 (HCoV-NL63; [7]): > 200 µM
CC50 at 5 days [5]: > 200 µM

COc1nc(N)ncc1-c1cn(COCCOC(C)=O)cn1 [Compound 19, 2-((4-(2-amino-4-methoxypyrimidin-5-yl)-1H-imidazol-1-yl)methoxy)ethyl acetate]
block the replication of MERS-CoV [1]: can block the replication
EC50 [1]: 5.3 ± 0.7 µM
EC50 [2]: 3.4 ± 0.3 µM
CC50 as multiple of the EC50 [3]: ~3 times the EC50
block the replication of SARS-CoV [3]: can block the replication
CC50 (in vitro): 23.4 ± 0.4 µM
EC50 ([4]; Vero C1008): < 12 µM
EC50 [4, 6]: 11.9 ± 0.2 µM

NC(=O)c1ncn([C@@H]2O[C@H](CO)[C@@H](O)[C@H]2O)n1 [Ribavirin, ribavirin]
inhibitory concentration (coronavirus): 500 to 5000 µg/mL
inhibitory concentration needed to inhibit other viruses (other viruses): 50 to 100 µg/mL

Nc1nc(O)c2ncn(COC(CO)CO)c2n1 [ganciclovir]
activity against SARS-CoV or MERS-CoV in vitro (SARS-CoV or MERS-CoV): none of these well-known antiviral drugs exhibited any activity

Cc1cn([C@H]2C[C@H](N=[N+]=[N-])[C@@H](CO)O2)c(=O)[nH]c1=O [zidovudine]
activity against SARS-CoV or MERS-CoV in vitro (SARS-CoV or MERS-CoV): none of these well-known antiviral drugs exhibited any activity
